Reference: patent US20230002375A1, “HYDROPYRAZINO[1,2-B]ISOQUINOLINE COMPOUNDS FOR THE TREATMENT OF AUTOIMMUNE DISEASE” (Hoffmann-La Roche Inc., priority 2019, published 2023)

Key:
[1] = molecular target: T1, human TLR9 (Homo sapiens, UniProt Q9NR96); assay: HEK293-Blue-hTLR-9 cells assay (SEAP reporter, ODN2006 stimulation); assay type: cell-based; conditions: HEK293-Blue-hTLR9 cells, ODN2006, 20 hrs incubation; read-out: HEK/hTLR9 IC50
T1 sequence (Q9NR96 26-1032): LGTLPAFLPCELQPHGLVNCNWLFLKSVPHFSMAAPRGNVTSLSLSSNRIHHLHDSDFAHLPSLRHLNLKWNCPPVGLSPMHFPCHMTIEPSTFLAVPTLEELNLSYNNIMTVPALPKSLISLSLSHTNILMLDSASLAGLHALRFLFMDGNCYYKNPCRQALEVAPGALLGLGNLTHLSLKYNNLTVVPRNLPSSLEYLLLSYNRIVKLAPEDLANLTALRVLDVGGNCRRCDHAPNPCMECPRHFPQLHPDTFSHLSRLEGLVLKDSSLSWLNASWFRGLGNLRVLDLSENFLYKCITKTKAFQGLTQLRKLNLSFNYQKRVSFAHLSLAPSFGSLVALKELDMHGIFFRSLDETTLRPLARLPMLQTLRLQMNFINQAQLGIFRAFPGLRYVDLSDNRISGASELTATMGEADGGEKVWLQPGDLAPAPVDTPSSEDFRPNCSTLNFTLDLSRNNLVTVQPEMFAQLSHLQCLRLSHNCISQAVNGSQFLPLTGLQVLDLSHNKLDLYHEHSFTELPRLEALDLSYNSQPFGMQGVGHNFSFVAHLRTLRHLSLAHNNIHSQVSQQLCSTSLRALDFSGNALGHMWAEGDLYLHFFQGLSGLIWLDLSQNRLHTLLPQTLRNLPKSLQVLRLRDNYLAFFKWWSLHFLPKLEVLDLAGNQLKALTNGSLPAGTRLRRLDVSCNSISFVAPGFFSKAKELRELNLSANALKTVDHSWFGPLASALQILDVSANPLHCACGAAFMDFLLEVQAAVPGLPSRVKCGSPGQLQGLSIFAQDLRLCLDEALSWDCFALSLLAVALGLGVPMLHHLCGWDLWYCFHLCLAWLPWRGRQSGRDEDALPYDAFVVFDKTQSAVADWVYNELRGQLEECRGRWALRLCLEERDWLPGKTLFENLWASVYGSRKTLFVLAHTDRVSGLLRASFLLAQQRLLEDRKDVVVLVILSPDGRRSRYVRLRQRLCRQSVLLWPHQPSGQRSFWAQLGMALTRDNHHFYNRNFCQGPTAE
Procedure: The following tests were carried out in order to determine the activity of the compounds of formula (I), (Ia) or (Ib) in HEK293-Blue-hTLR-7/8/9 cells assay.
HEK293-Blue-hTLR-9 Cells Assay:
A stable HEK293-Blue-hTLR-9 cell line was purchased from InvivoGen (Cat.#: hkb-htlr9, San Diego, Calif., USA). These cells were originally designed for studying the stimulation of human TLR9 by monitoring the activation of NF-κB. A SEAP (secreted embryonic alkaline phosphatase) reporter gene was placed under the control of the IFN-β minimal promoter fused to five NF-κB and AP-1-binding sites. The SEAP was induced by activating NF-κB and AP-1 via stimulating HEK-Blue hTLR9 cells with TLR9 ligands. Therefore the reporter expression was declined by TLR9 antagonist under the stimulation of a ligand, such as ODN2006 (Cat.#: tlrl-2006-1, Invivogen, San Diego, Calif., USA), for incubation of 20 hrs. The cell culture supernatant SEAP reporter activity was determined using QUANTI-Blue™ kit (Cat.#: rep-qb1, Invivogen, San Diego, Calif., USA) at a wavelength of 640 nm, a detection medium that turns purple or blue in the presence of alkaline phosphatase.
HEK293-Blue-hTLR9 cells were incubated at a density of 250,000-450,000 cells/mL in a volume of 170 μL in a 96-well plate in Dulbecco's Modified Eagle's medium (DMEM) containing 4.5 g/L glucose, 50 U/mL penicillin, […], 2 mM L-glutamine, 10% (v/v) heat-inactivated fetal bovine serum with addition of 20 μL test compound in a serial dilution in the presence of final DMSO at 1% and 10 μL of 20 uM ODN2006 in above DMEM, perform incubation under 37° C. in a CO2 incubator for 20 hrs. Then 20 μL of the supernatant from each well was incubated with 180 μL Quanti-blue substrate solution at 37° C. for 2 h and the absorbance was read at 620-655 nm using a spectrophotometer. The signaling pathway that TLR9 activation leads to downstream NF-κB activation has been widely accepted, and therefore similar reporter assay was modified for evaluating TLR9 antagonist.

[2] = Human microsomal stability assay; assay type: in vitro ADME; conditions: human liver microsomes, 1 μM test compound, 0.5 mg/mL protein, 37° C.; low <7.0, medium 7.0-16.2, high 16.2-23.2 mL/min/kg
Procedure: Human Microsomal Stability Assay
Human liver microsomes (Cat.NO.: 452117, Corning, USA) were preincubated with test compound for 10 minutes at 37° C. in 100 mM potassium phosphate buffer, pH 7.4. The reactions were initiated by adding NADPH regenerating system. The final incubation mixtures contained 1 μM test compound, 0.5 mg/mL liver microsomal protein, 1 mM MgCl2, 1 mM NADP, 1 unit/mL isocitric dehydrogenase and 6 mM isocitric acid in 100 mM potassium phosphate buffer, pH 7.4. After incubation times of 0, 3, 6, 9, 15 and 30 minutes at 37° C., 300 μL of cold ACN (including internal standard) was added to 100 μL incubation mixture to terminate the reaction. Following precipitation and centrifugation, 100 uL supernatant will be taken out and added 300 uL water. The amount of compound remaining in the samples was determined by LC-MS/MS. Controls of no NADPH regenerating system at zero and 30 minutes were also prepared and analyzed. The results were categorized as: low (<7.0 mL/min/kg), medium (7.0-16.2 mL/min/kg) and high (16.2-23.2 mL/min/kg).

C[C@@H]1CN(c2ccc(C#N)c3ncccc23)C[C@@H]2Cc3cc(N4CCN(C(=O)[C@]5(C)CCCN5)CC4)ccc3CN21 [Example 14, 5-[(4R,11aS)-4-methyl-9-[4-[(2S)-2-methylpyrrolidine-2-carbonyl]piperazin-1-yl]-1,3,4,6,11,11a-hexahydropyrazino[1,2-b]isoquinolin-2-yl]quinoline-8-carbonitrile]
IC50 [1]: 254 nM | CL(h) [2]: 8.7 mL/min/kg

C[C@@H]1CN(c2ccc(C#N)c3ncccc23)C[C@@H]2Cc3cc(N4CC(N)CC4=O)ccc3CN21 (stereo partly drawn) [Example 16, 5-[(4R,11aS)-9-(4-amino-2-oxo-pyrrolidin-1-yl)-4-methyl-1,3,4,6,11,11a-hexahydropyrazino[1,2-b]isoquinolin-2-yl]quinoline-8-carbonitrile]
IC50 [1]: 125 nM | CL(h) [2]: 6.8 mL/min/kg
